Measured values reported in patent US20040219202A1, “Pharmaceutical composition comprising lipids comprising a polar and a nonpolar moiety” (priority 2001, published 2004).

Experiments:
[1] = Net charge of cationic lipid; assay type: physicochemical; settings: pH 7.4
Text: The monoacetylenic analogues of DOPC, DOPE, DODAP and DOTAP were synthesised as described above. Standard lipids for comparisons (DOPC, DOPE and DOTAP (chloride salt)) were purchased from Sigma-Aldrich, Poole, Dorset, UK. Our invention the cationic, cholesterol-based lipid N^1-cholesteryloxycarbonyl-3,7-diazanononane-1,9-diamine (CDAN)—net charge=+1.6 at pH 7.4.CDAN (below) was synthesised by our group previously,^22 and is now available in a 1:1 molar ratio formulation with DOPE as Trojene™ (Avanti Polar Lipids, Inc., Alabaster, Ala., USA). [drawing 40]

[2] = test system: C. tomentosicollis eggs; settings: cited from earlier work
[3] = target: DNA; settings: read-out: apparent DNA dissociation constant; cited from earlier work
[4] = target: T1, DNA polymerase α (Homo sapiens, UniProt P09884); settings: cited from earlier work
T1 sequence (P09884 1-1462): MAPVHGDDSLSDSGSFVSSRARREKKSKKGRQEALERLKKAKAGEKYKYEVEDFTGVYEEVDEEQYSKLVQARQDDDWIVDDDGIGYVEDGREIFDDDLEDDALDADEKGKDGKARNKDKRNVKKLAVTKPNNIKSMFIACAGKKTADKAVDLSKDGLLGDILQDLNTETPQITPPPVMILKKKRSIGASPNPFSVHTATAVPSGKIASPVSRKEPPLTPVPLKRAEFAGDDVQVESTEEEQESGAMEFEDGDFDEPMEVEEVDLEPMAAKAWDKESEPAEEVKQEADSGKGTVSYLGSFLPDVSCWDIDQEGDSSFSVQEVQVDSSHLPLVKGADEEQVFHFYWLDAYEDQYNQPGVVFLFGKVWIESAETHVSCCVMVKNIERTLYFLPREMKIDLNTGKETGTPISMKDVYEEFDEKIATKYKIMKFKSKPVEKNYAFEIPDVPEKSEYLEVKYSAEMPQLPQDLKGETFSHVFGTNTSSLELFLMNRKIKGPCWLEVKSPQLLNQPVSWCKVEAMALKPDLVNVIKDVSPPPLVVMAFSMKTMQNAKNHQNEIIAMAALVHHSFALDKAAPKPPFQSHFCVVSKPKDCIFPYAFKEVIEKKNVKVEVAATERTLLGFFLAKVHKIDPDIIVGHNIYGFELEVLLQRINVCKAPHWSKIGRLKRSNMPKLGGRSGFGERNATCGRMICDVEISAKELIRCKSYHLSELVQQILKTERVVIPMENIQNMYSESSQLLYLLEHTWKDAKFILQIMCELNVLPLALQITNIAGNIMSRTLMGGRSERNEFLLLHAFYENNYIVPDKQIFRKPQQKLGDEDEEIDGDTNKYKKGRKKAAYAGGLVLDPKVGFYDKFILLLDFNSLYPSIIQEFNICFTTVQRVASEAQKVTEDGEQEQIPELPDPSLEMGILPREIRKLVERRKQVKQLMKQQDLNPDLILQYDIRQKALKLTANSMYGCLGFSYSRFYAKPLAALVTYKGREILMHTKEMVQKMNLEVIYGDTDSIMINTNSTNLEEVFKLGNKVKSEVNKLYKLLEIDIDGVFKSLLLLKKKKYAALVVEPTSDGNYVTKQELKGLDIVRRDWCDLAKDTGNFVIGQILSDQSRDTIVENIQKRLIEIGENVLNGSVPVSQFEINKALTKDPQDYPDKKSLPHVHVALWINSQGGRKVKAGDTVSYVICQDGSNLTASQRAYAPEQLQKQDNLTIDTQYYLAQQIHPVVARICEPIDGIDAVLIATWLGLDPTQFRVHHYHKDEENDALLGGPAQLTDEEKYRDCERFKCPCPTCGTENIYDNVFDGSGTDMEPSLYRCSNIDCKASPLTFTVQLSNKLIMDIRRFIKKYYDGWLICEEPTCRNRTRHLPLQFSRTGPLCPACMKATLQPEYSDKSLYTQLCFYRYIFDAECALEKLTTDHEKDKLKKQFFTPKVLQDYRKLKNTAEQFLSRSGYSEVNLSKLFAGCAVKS

[5] = target: T2, DNA topoisomerase I (Homo sapiens, UniProt P11387); settings: cited from earlier work
T2 sequence (P11387 1-765): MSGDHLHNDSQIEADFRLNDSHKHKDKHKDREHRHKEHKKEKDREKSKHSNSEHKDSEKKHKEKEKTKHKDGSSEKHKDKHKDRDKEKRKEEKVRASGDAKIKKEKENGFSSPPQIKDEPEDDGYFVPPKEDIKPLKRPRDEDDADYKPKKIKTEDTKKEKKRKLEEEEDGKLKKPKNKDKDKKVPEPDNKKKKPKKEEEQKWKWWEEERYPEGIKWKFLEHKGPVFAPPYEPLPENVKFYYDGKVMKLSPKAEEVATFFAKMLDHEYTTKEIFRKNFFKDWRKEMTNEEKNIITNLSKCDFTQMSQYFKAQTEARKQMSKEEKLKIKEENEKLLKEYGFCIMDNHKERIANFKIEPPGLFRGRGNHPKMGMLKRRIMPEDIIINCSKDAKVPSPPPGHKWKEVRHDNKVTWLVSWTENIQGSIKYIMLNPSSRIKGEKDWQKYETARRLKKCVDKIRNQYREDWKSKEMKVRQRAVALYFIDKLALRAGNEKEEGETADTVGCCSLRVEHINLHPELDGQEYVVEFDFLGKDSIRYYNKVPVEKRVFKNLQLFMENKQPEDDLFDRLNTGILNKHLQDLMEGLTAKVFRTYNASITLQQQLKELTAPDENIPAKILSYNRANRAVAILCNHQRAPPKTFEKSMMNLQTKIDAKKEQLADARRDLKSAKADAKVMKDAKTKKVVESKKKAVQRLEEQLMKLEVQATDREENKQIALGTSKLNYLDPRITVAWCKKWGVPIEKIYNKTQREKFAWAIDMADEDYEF

[6] = target: T3, Cytochrome P4504A4 (CYP4A4) (Oryctolagus cuniculus, UniProt P10611); settings: cited from earlier work
T3 sequence (P10611 5-510): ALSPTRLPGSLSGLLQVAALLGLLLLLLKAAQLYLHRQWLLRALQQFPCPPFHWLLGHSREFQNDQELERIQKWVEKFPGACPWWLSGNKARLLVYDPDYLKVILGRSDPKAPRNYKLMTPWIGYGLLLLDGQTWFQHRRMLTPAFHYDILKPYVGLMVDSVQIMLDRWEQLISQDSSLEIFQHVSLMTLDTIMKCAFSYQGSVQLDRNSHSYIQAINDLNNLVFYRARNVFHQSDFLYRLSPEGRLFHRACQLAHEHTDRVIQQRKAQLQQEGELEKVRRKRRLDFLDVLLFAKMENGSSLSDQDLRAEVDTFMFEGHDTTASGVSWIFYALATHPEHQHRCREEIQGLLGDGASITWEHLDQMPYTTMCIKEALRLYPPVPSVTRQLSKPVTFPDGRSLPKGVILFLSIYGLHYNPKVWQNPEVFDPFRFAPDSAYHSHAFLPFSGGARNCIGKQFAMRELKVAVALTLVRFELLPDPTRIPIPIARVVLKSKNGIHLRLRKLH

[7] = target: T4, cytochrome P4504A1 (Rattus norvegicus, UniProt P08516); settings: cited from earlier work
T4 sequence (P08516 1-509): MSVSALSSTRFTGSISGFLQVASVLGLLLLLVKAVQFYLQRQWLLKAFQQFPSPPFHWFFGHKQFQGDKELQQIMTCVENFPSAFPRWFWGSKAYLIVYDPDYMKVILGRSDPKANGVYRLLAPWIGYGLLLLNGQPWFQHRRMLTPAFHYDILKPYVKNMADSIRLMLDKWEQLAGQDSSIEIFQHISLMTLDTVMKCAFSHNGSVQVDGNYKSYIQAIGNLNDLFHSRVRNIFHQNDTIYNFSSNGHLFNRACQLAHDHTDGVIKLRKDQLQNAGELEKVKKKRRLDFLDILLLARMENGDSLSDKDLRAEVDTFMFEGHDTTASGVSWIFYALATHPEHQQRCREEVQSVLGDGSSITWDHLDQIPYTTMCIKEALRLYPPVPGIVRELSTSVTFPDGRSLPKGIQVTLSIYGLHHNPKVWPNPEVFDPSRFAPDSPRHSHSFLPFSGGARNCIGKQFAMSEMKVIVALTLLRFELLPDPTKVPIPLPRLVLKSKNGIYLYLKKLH

[8] = test system: ethanolamine-specific phospholipid base exchange reaction; settings: rat liver microsomes; cited from earlier work
[9] = test system: hepatic glutathione S-transferases; settings: cited from earlier work
[10] = test system: cyclo-oxygenase; settings: cited from earlier work
[11] = target: T5, 5-lipoxygenase (Homo sapiens, UniProt P09917); settings: cited from earlier work
T5 sequence (P09917 1-674): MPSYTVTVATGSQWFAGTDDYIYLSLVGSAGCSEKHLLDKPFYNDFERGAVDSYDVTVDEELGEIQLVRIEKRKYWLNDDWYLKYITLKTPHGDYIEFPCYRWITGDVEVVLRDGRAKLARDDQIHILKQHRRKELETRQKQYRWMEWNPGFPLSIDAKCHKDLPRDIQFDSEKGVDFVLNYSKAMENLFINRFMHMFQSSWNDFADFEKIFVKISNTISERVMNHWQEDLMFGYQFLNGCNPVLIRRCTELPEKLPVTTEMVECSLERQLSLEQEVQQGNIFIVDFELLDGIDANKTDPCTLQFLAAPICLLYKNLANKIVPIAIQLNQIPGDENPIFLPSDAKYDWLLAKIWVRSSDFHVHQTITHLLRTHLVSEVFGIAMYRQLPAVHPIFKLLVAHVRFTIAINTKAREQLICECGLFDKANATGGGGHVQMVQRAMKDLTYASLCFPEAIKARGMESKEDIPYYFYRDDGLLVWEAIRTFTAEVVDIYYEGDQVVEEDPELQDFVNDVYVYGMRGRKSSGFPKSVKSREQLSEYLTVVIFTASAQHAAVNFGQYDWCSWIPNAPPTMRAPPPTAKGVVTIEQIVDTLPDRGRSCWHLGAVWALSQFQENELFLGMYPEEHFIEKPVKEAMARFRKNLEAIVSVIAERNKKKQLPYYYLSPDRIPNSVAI

[12] = test system: Fe(III)-LOX; settings: cited from earlier work

## CC(C)CCC[C@@H](C)[C@H]1CC[C@H]2[C@@H]3CC=C4C[C@@H](OC(=O)NCCNCCCNCCN)CC[C@]4(C)[C@H]3CC[C@]12C [CDAN, N^1-cholesteryloxycarbonyl-3,7-diazanononane-1,9-diamine]
[1]
  net charge: +1.6

## CCCCCCCCCCCCC#CCCCC(=O)O [Octadeca-5-ynoic acid]
[2]
  Hatching of C. tomentosicollis eggs: inhibits the hatching

## CCCCCCCCC#CCCCCCCCC(=O)O [Octadeca-9-ynoic acid, octadeca-9-ynoic acid]
[3]
  Kd: 1800 µM
[4]
  Inhibition of DNA polymerase α: weakly inhibitory
[5]
  DNA topoisomerase I-mediated relaxation of a supercoiled plasmid DNA: does not inhibit
  topisomerase I-mediated DNA filter binding: inhibits

## C#CCCCCCCCCCCCCCCCC(=O)O [Octadeca-17-ynoic acid]
[6]
  Inhibition of the substrate-binding pocket of CYP4A4: effective inhibitor

## C#CCCCCCCCCC(=O)O [Undeca-10-ynoic acid]
[7]
  Inhibition of cytochrome P4504A1: inhibitor
[8]
  Ethanolamine-specific phospholipid base exchange reaction: inhibits

## CCCCCCCCC#CCC#CCC#CCCCC(=O)O [eicosa-5,8,11-triynoic acid]
[9]
  Inhibition of mammalian hepatic glutathione S-transferases: inhibits

## CCCCCC#CC#CC#CCCCCCCC(=O)O [octadeca-8,10,12-triynoic acid]
[10]
  Inhibition of cyclo-oxygenase: potent inhibitors
[11]
  Inhibition of 5-lipoxygenase: weak inhibitors

## CCCCCC#CCC#CCCCCCCCC(=O)O [octadeca-9,12-diynoic acid]
[12]
  Inactivation of Fe(III)-LOX: irreversibly inactivates
